Source: paper PMC10957775, “Integrated chemical characterization, metabolite profiling, and pharmacokinetics analysis of Zhijun Tangshen Decoction by UPLC-Q/TOF-MS” (Frontiers in Pharmacology, 2024)
Like-named read-outs stand apart in the source and are kept apart here.

Key:
[1] = parameters: AUC(0→t) / Cmax: unit not given beside the values; conditions: rat, in vivo
[2] = Multi-compound pharmacokinetics of ZJTSD in rat serum, semi-quantitative UPLC-Q/TOF-MS (peak area ratio versus time, non-compartmental); conditions: for pharmacokinetic behavior compared with other prototype compounds and metabolites (in words): non-compartmental analysis; for AUC (in words): peak area ratio versus time
Description: Thirty male Sprague–Dawley rats (200 ± 20 g) were purchased from the Nanjing Qinglongshan Experimental Animal Center (Nanjing, China). […] All rats were divided randomly into two groups: ZJTSD-dosed group (n = 27) and control group (n = 3). The ZJTSD-dosed group was given the ZJTSD solution by gavage (i.g.) at a dosage of 1 mL/100 g body weight of rats, and the control group was given 0.9% normal saline at the same dose, twice a day for a week. After the last administration, the blood was collected from the hepatic portal vein at 15 min, 30 min, 1 h, 2 h, 4 h, 6 h, 8 h, 12 h, and 24 h, and 3 rats were taken at each time point.
The blood samples of rats were centrifuged at 4,000 rpm for 10 min to obtain the serum. The serum sample (1 mL) was processed with a 3-fold volume using methanol for protein precipitation, with epicoprostanol serving as the internal standard (digoxin and clarithromycin). After vortexing for 3 min, the mixture was centrifuged at 18,000 rpm for 10 min. Subsequently, the supernatant was evaporated at 45°C using a vacuum concentrator. After evaporating the solvent, 150 μL of methanol/water (1:1, v/v) was added, vortexed, sonicated, and then centrifuged at 18,000 rpm for 10 min at 4°C. The resulting supernatant was used for further analysis.
Liquid chromatographic separation was performed using an AB SCIEX LC™ 2.0 system (AB SCIEX, United States) fitted with an Acquity UPLC BEH C18 column (100 mm × 2.1 mm, 1.7 μm; Ireland). The mobile phases in negative and positive ion modes consisted of 0.1% FA aqueous solution (A) and acetonitrile containing 0.1% FA (B). The program of the elution gradient was set as follows: 0∼5 min, 2%∼35 %B; 5∼7 min, 35%∼50%; 7∼10 min, 50%∼70%; 10∼15 min, 70%∼90 %B; 15∼18 min, 90%∼90 %B; 18∼18.5 min, 90%∼2 %B; and 18.5∼20 min, 2%∼2 %B. The injection volume was 3 µL. The flow rate and the column temperature were set at 0.3 mL/min and 40°C, respectively.
The mass spectrometry analysis was performed on a SCIEX ZenoTOF™ 7600 system (AB SCIEX, United States), which was calibrated in the high-sensitivity mode for every 10 samples. Spectra were acquired in the TOF/MS-IDA-TOF MS/MS mode with the ESI source operating in positive and negative ion modes. MS parameters were set as follows: ionization source, ESI; spray voltage, 5,500 kV/–4,500 kV; collision energy, 40 V/–40 V; declustering potential, 80 V/–80 V; ion source temperature, 550°C; and scan range, 100–1250 m/z. Data acquisition and processing were performed using SCIEX OS 2.2 and PeakView 2.2.
A semi-quantitative method was adopted based on the correction peak area versus time ([Wang et al., 2011]; [Lin et al., 2019]). The mean serum time-course profile of pharmacokinetics based on the peak area ratio versus time was plotted using Origin 2018. The kinetic analysis of the peak area ratio (×1,000)–time curve was calculated using Phoenix WinNonlin 8.1 (Phoenix, American) software and illustrated.

[3] = male, Sprague-Dawley, rat, serum (hepatic portal vein blood), po, 1 mL/100 g body weight
[4] = male, Sprague-Dawley, rat, serum (hepatic portal vein blood), po, 1 mL/100 g body weight, t1/2, prototype compounds of ZJTSD absorbed into rat serum, mean±SD, n=3
[5] = male, Sprague-Dawley, rat, serum (hepatic portal vein blood), po, 1 mL/100 g body weight, t1/2, metabolites of ZJTSD in rat serum, mean±SD, n=3
[6] = prototype compounds of ZJTSD absorbed into rat serum, mean±SD, n=3, in h
[7] = metabolites of ZJTSD in rat serum, mean±SD, n=3, in h
[8] = male, Sprague-Dawley, rat, serum (hepatic portal vein blood), po, 1 mL/100 g body weight, elimination half-life (t1/2), rat hepatic portal vein serum after oral ZJTSD, semi-quantitative peak area ratio

Structure (SMILES)	MRT last [2, 3] [h]	Tmax [2, 3] [h]	half-life [2, 4] [h]	also measured
Cc1cc(O)c2c(c1)C(=O)c1cc(C(=O)O)cc(O)c1C2=O [P19, 6-Methyl-rhein]				AUC(0→t) [1]: 406691.82±79143.95; Cmax [1]: 79253.50±34585.36; MRT(0→t) [1]: 5.64±1.31; t1/2 [1]: 1.98±0.38
O=C(O)/C=C/c1ccccc1 [P36, Cinnamic acid]	5.15 ± 0.25	1.58 ± 2.1	25.8 ± 26.4	
O=c1ccc2cc(O)c(O)cc2o1 [P39, Esculetin]	4.92 ± 0.8	0.33 ± 0.14	4.4 ± 3.9	
Cc1ccc2c(c1)C(=O)c1cc(OS(=O)(=O)O)ccc1C2=O [M26]				AUC (in words) ([1]; po): greater; Tmax ([1]; po): ≤ 3.5 h; elimination half-life (t1/2) ([1]; po): less than 4 h; pharmacokinetic behavior compared with other prototype compounds and metabolites (in words) ([1]; po): better pharmacokinetic behavior
Cc1cc(O)cc2oc(CC(C)O)cc(=O)c12 (stereo not drawn) [P2, 7-Hydroxy-2-(2-hydroxypropyl)-5-methylchromen-4-one]	3.45 ± 0.58	0.67 ± 0.29	2.17 ± 0.12	level of exposure in the blood (in words) ([2]; rat serum after oral ZJTSD): higher level of exposure; pharmacokinetic behavior compared with other prototype compounds and metabolites (in words) ([2]; rat serum after oral ZJTSD): better pharmacokinetic behavior
CC1CCC2(C(=O)O)CCC3(C)C(=CCC4C5(C=O)CC(O)C(O)C(C)(C)C5CCC43C)C2C1(C)O (stereo not drawn) [M77]				half-life [2, 5]: 10.8 ± 4.71 h
O=C1c2ccccc2C(=O)c2ccccc21 [M52]				AUC (in words) ([1]; po): greater; Cmax / peak concentration (in words) ([1]; po): higher peak concentrations; Tmax ([1]; po): > 4 h; pharmacokinetic behavior compared with other prototype compounds and metabolites (in words) ([1]; po): better pharmacokinetic behavior
O=C1CCCn2c(CO)ccc21 [P34, Polygonatine A]				MRT(0→t) [2, 6]: 3.96±0.32; t1/2 [2, 6]: 3.76±1.03
CSCC[C@H](N)C(=O)O [P25, L-Methionine]	12.5 ± 1.36	2.17 ± 3.32		
O=C(O)[C@@H]1CCCN1 [P26, Proline]	11.1 ± 0.44	0.5	47.1 ± 35.8	
CC(=O)/C=C/c1ccc(CO)o1 [P51, (E)-4-[5-(Hydroxymethyl)-2-furanyl]-3-butene-2-one]	4.2 ± 0.25	4.67 ± 1.16		
COc1ccc2c(c1OC)O[C@H]1c3ccc(O)cc3OC[C@@H]21 [P8, Methylnissolin]				AUC(0→t) [1]: 3.73±0.45; Cmax [1]: 0.77±0.18; MRT(0→t) [1]: 6.10±1.53; Tmax [1]: 0.42±0.14; t1/2 [1]: 4.16±2.01
COC(=O)c1ccc(O)cc1 [M89]				MRT(0→t) [2, 7]: 5.35±0.92; Tmax [2, 7]: 3.00±1.73
CC(=O)CCc1ccc(OS(=O)(=O)O)cc1 [M85]				AUC (in words) ([1]; po): greater; Tmax ([1]; po): ≤ 3.5 h; elimination half-life (t1/2) ([1]; po): less than 4 h; pharmacokinetic behavior compared with other prototype compounds and metabolites (in words) ([1]; po): better pharmacokinetic behavior
COc1c(O)c(C)cc2c1C(=O)c1ccc(O)cc1C2=O [P21, 2,6-Dihydroxy-1-methoxy-3-methylanthraquinone]	4.27 ± 0.55	2.5 ± 3.04	3.45 ± 1.44	
OC1COCC1O (stereo not drawn) [M87]				MRT(0→t) [2, 7]: 9.59±1.35; Tmax [2, 7]: 1.17±0.76; t1/2 [2, 7]: 17.68±16.89
Cc1cc(=O)c2c(CC(=O)O)cc(O)cc2o1 [P4, 2-Methyl-5-carboxymethyl-7-hydroxychromone]	5.29 ± 0.3	1.67 ± 2.02	3.14 ± 0.86	
N[C@@H](Cc1c[nH]cn1)C(=O)O [P24, Histidine]	9.9 ± 0.35	2.75 ± 2.95	21.1 ± 10.2	
COc1cc(-c2coc3cc(O)ccc3c2=O)ccc1O [P10, 7,4'-Dihydroxy-3'-methoxyisoflavone]	10.8 ± 0.72	2.08 ± 1.88	67.3 ± 4.4	
Cc1cc2c(cc1O)C(=O)c1ccccc1C2=O [P11, 2-Methyl-3-hydroxyanthraquinone]	3.23 ± 0.59	0.67 ± 0.29	4.29 ± 2.71	level of exposure in the blood (in words) ([2]; rat serum after oral ZJTSD): higher level of exposure; pharmacokinetic behavior compared with other prototype compounds and metabolites (in words) ([2]; rat serum after oral ZJTSD): better pharmacokinetic behavior
Cc1cc(=O)c2c(C)cc(O)cc2o1 [P1, 2,5-Dimethyl-7-hydroxychromone]	3.43 ± 0.76	0.67 ± 0.29	2.7 ± 0.14	level of exposure in the blood (in words) ([2]; rat serum after oral ZJTSD): higher level of exposure; pharmacokinetic behavior compared with other prototype compounds and metabolites (in words) ([2]; rat serum after oral ZJTSD): better pharmacokinetic behavior
O=CCC(O)(CC(=O)O)C(=O)O (stereo not drawn) [M90]				MRT(0→t) [2, 7]: 7.25±1.46; Tmax [2, 7]: 1.08±0.88; t1/2 [2, 7]: 7.50±1.85; Tmax ([2]; rat hepatic portal vein serum after oral ZJTSD twice a day for a week, semi-quantitative peak area ratio): ≤ 3.5 h; elimination half-life (t1/2) ([2]; rat hepatic portal vein serum after oral ZJTSD, semi-quantitative peak area ratio): > 7.5 h; time to peak (in words) ([2]; rat serum after oral ZJTSD): faster time to peak; pharmacokinetic behavior compared with other prototype compounds and metabolites (in words) ([2]; rat serum after oral ZJTSD): better pharmacokinetic behavior; AUC (in words) ([2]; rat serum after oral ZJTSD): greater
O=C1c2ccccc2C(=O)c2cc(CO)c(O)cc21 [P15, 2-Hydroxy-3-hydroxymethylanthraquinone]	4.81 ± 0.31	1.67 ± 2.02		
C[N+](C)(C)CC(=O)O [P35, Betaine]	10.8 ± 0.64	6.67 ± 4.62	24.2 ± 14.5	

Structure (SMILES)	MRT last [2, 3] [h]	Tmax [2, 3] [h]	half-life [2, 4] [h]	also measured
CCCCCCCCCCCCCCCCOC[C@@H](O)COP(=O)([O-])OCC[N+](C)(C)C [P44, 1-O-Hexadecyl-sn-glycero-3-phosphocholine]	11.9 ± 0.91	0.58 ± 0.38	33.1 ± 13.3	
Cc1cc(O)c2c(c1)C(=O)c1cccc(O)c1C2=O [M56]				AUC (in words) ([1]; po): greater; Cmax / peak concentration (in words) ([1]; po): higher peak concentrations; Tmax ([1]; po): ≤ 3.5 h; elimination half-life (t1/2) ([1]; po): > 7.5 h; pharmacokinetic behavior compared with other prototype compounds and metabolites (in words) ([1]; po): better pharmacokinetic behavior; time to peak (in words) ([1]; po): faster time to peak
O=C1C[C@@H](c2ccc(O[C@@H]3O[C@H](CO)[C@@H](O)[C@H](O)[C@H]3O)cc2)Oc2cc(O)ccc21 [liquiritin]				detection in serum / absorbed form ([1]; po): not detected in the serum
C=Cc1ccc(O)c(OC)c1 [P42, 4-Vinyl-2-methoxyphenol]	10.2 ± 0.64	10.7 ± 2.31		
O=C(O)c1cc(O)c2c(c1)C(=O)c1cccc(O)c1C2=O [P18, Rhein]	3.55 ± 0.57	1.67 ± 2.02	4.7 ± 0.9	detection in serum / absorbed form ([2]; rat serum after oral ZJTSD): absorbed as prototype compounds
O=C(CCc1ccc(O)cc1)c1ccc(O)cc1O [M11]				half-life [2, 5]: 7.01 ± 2.29 h
N[C@@H](Cc1c[nH]c2ccccc12)C(=O)O [P23, Tryptophan]	12.4 ± 0.14	1.08 ± 0.88		
Oc1ccccc1O [M94]				AUC (in words) ([1]; po): greater; Tmax ([1]; po): ≤ 3.5 h; elimination half-life (t1/2) ([1]; po): > 7.5 h; pharmacokinetic behavior compared with other prototype compounds and metabolites (in words) ([1]; po): better pharmacokinetic behavior
COc1cc(C)c2c(=O)cc(C)oc2c1 [P6, 2,5-Dimethyl-7-methoxychromone]	12.1 ± 0.02	4.75 ± 4.02		
COc1c(-c2ccccc2)oc2cc(O)cc(O)c2c1=O [P3, 3-Methoxy-5,7-dihydroxyflavone]	4.8 ± 0.38	1.83 ± 1.89	4.04 ± 1.91	
O=C1c2cccc(O)c2C(=O)c2c(O)cc(CO)cc21 [P17, Aloe-emodin]	5.2 ± 3.03	4.17 ± 3.75	1.73	detection in serum / absorbed form ([2]; rat serum after oral ZJTSD): absorbed as prototype compounds
CCCCCCCCCCCCCCCCCC(=O)OC[C@@H](O)COP(=O)([O-])OCC[N+](C)(C)C [P45, 1-O-Octadecanoyl-sn-glycero-3-phosphocholine]	9.91 ± 0.56	2	21.9 ± 6.81	MRT [2, 3]: 9.91 h; half-life [2, 8]: 21 h; pharmacokinetic behavior compared with other prototype compounds and metabolites (in words) ([2]; rat serum after oral ZJTSD): better pharmacokinetic behavior
O=Cc1c[nH]c2ccccc12 [P46, Indole-3-carbaldehyde]	12.7 ± 0.3	12.1 ± 11.9		
O=C(O)c1ccc(O)cc1 [P41, p-Hydroxybenzoic acid]	9.15 ± 0.95	2.75 ± 2.17	19.4 ± 2.9	pharmacokinetic behavior compared with other prototype compounds and metabolites (in words) ([2]; rat serum after oral ZJTSD): better pharmacokinetic behavior
O=C1CCCCN1 [P47, 2-Piperidone]	11.8 ± 0.21	12		
COc1cc2ccc(=O)oc2cc1O [P38, Scopoletin]	4.36 ± 1.52	0.5	4.77 ± 1.43	
Cc1cc(O)c2c(c1)C(=O)c1ccccc1C2=O [M63]				half-life [2, 5]: 5.43 ± 2.61 h
COc1c(O)ccc2c1C(=O)c1ccccc1C2=O [P14, 2-Hydroxy-1-methoxyanthraquinone]	4.24 ± 0.57	0.67 ± 0.29	3.5 ± 2.06	level of exposure in the blood (in words) ([2]; rat serum after oral ZJTSD): higher level of exposure; pharmacokinetic behavior compared with other prototype compounds and metabolites (in words) ([2]; rat serum after oral ZJTSD): better pharmacokinetic behavior
O=C(O)C=Cc1ccc(O)cc1 [P37, p-Coumaric acid]	3.97 ± 0.59	1.58 ± 2.1	3.23 ± 0.95	level of exposure in the blood (in words) ([2]; rat serum after oral ZJTSD): higher level of exposure; pharmacokinetic behavior compared with other prototype compounds and metabolites (in words) ([2]; rat serum after oral ZJTSD): better pharmacokinetic behavior
O=C(O)CC(O)(CC(=O)O)C(=O)O [P40, Citric acid]	9.56 ± 1.76	3.33 ± 1.16	24.7 ± 23.6	MRT [2, 3]: 9.56 h; half-life [2, 8]: 21 h; AUC (in words) ([2]; rat serum after oral ZJTSD): largest
O=C(O)/C=C/c1ccc(O)cc1 [M91]				MRT(0→t) [2, 7]: 3.97±0.59; Tmax [2, 7]: 1.58±2.10; t1/2 [2, 7]: 3.23±0.95
CC(=O)Cc1cc(O)cc2oc(C)cc(=O)c12 [P5, 2-Methyl-5-acetonyl-7-hydroxychromone]	4.23 ± 0.55	0.67 ± 0.29	3.09 ± 0.19	
COC(=O)C1CCC(=O)N1 (stereo not drawn) [P33, 5-Oxo-pyrrolidine-2-carboxylic acid methyl ester]	13.9 ± 1.35	14 ± 9.17		
